These results are taken from US7982042B2, “Thiozanthene derivatives as delta-opioid modulators” (priority 2003, dated 2011).

Test [1] addresses T1, Rat brain mu opioid receptor (Rattus norvegicus, UniProt P33535).
T1 construct: from tissue; host or cells: forebrain of male Sprague Dawley rats
Description: Rat brain mu opioid receptor binding assay ([3H]DAMGO). As to the method:
• Procedure: Male, Sprague Dawley (150-250 g, VAF, Charles River, Kingston, N.Y.) are killed by CO2, and their brains removed and placed immediately in ice cold Tris HCl buffer (50 mM, pH 7.4). The forebrains are separated from the remainder of the brain by a coronal transection, beginning dorsally at the colliculi and passing ventrally through the midbrain-pontine junction. After dissection, the forebrains are homogenized in Tris buffer in a Teflon®-glass homogenizer. The homogenate is diluted to a concentration of 1 g of forebrain tissue per 80 mL Tris and centrifuged at 39,000×g for 10 min. The pellet is resuspended in the same volume of Tris buffer containing 5 mM MgCl2 with several brief pulses from a Polytron homogenizer. This particulate preparation is used for the mu-opioid binding assays. […] Kd and Ki values are calculated using GraphPad PRISM data analysis program.

Test [2] has as its target T2, Rat brain delta opioid receptor (Rattus norvegicus, UniProt P33533).
T2 construct: from tissue; host or cells: rat brain
As to the kind of experiment: Rat brain delta opioid receptor binding.

Test [3] has as its target T3, human delta opioid receptor (Homo sapiens, UniProt P41143).
T3 construct: purchased Receptor Biology, Inc. (Baltimore, Md.); host or cells: CHO cells expressing the human delta receptor (membranes)
As to the kind of experiment: [35S]GTPγS binding assay in CHO-hδ cell membranes. Format: biochemical. The note with it: hDOR GTPγS EC50, human delta opioid receptor GTPγS functional assay. As to the method: CHO-hδ cell membranes are purchased from Receptor Biology, Inc. (Baltimore, Md.). 10 mg/ml of membrane protein is suspended in 10 mM TRIS-HC pH 7.2, 2 mM EDTA, 10% sucrose.
Membranes are maintained at 4-8° C. 1 ml of membranes is added into 15 ml cold binding assay buffer. The assay buffer contained 50 mM HEPES, pH 7.6, 5 mM MgCl2, 100 mM NaCl, 1 mM DTT and 1 mM EDTA. The membrane suspension is homogenized with a Polytron 2 times and centrifuged at 3000 rpm for 10 min. The supernatant is then centrifuged at 18,000 rpm for 20 min. The pellet is saved in a tube and 10 ml assay buffer is added into the tube. The pellet and buffer are mixed with a Polytron.
The pellet membranes (20 μg/ml) are preincubated with SPA (10 mg/ml) at 25° C. for 45 min in the assay buffer. The SPA (5 mg/ml) coupled with membranes (10 μg/ml) is then incubated with 0.5 nM [^35S]GTPgS in the same HEPES buffer containing 50 μM GDP in total volume of 200 μl. Increasing concentrations of receptor agonists are used to stimulate [^35S]GTPgS binding. The basal binding is tested in the absence of agonists and non-specific binding is tested in the presence of 10 μM unlabeled GTP S. The data are analyzed on a Top counter.

Like-named read-outs stand apart in the source and are kept apart here.

T1 sequence (P33535 whole entry): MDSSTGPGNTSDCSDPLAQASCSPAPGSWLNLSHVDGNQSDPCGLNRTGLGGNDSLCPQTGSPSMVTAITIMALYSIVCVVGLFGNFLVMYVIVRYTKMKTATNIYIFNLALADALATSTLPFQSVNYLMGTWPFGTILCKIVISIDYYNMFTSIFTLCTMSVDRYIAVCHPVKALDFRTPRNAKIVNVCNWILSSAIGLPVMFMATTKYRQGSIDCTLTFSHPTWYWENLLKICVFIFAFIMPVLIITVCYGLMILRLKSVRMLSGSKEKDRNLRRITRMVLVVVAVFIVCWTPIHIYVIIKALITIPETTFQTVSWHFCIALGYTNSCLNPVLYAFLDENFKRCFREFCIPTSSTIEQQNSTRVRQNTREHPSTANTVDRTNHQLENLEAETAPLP
T2 sequence (P33533 whole entry): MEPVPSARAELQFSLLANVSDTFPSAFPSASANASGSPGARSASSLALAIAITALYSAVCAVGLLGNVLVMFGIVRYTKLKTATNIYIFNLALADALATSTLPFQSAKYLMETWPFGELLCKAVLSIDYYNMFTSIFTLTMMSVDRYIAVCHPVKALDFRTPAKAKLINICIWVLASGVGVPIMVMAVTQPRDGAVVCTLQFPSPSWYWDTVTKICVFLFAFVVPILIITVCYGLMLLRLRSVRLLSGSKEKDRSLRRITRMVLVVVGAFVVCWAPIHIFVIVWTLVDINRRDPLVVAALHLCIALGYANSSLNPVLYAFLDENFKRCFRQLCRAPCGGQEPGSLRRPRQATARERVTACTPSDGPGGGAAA
T3 sequence (P41143 whole entry): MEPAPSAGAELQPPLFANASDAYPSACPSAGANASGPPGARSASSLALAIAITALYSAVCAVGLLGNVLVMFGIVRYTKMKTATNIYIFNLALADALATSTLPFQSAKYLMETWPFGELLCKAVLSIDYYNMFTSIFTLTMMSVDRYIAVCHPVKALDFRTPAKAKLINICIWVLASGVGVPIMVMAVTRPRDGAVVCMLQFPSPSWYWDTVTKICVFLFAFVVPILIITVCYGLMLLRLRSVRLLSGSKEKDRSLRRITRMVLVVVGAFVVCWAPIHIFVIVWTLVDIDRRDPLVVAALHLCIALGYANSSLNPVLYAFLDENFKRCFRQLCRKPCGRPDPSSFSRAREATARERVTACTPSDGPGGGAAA

With `CCNC(=O)c1ccc2c(c1)Sc1ccccc1C2=C1CC2CCC(C1)N2` [Compound 81], the Ki (as a rule, a dissociation constant, usually derived from enzyme kinetics or from competition with a known ligand) came out at 838 nM in test [1] (rMOR Ki) and 77.6 nM in test [2] (rDOR Ki).

As for `CCN(CC)C(=O)c1ccc2c(c1)Oc1ccc(Br)cc1C2=C1CC2CCC(C1)N2` [Compound 83], the inhibition constant Ki in test [1] (rMOR Ki) came out at 17700 nM; in test [2] (rDOR Ki) it was 139 nM.

Regarding `CCNC(=O)c1ccc2c(c1)Oc1ccccc1C2=C1CC2CCC(C1)N2` (single isomer, unassigned) [Compound 56], the inhibitory constant (Ki) in test [1] (read-out: rMOR Ki) amounted to 712 nM; in test [2] (read-out: rDOR Ki), 161 nM.

As for `CCN(CC)C(=O)c1ccc2c(c1)Oc1ccccc1C2=C1CC2CCC(C1)N2CCSC` [Compound 40, 9-[8-(Methylsulfanyl-ethyl)-8-aza-bicyclo[3.2.1]oct-3-ylidene]-9H-xanthene-3-carboxylic acid diethylamide], the inhibitory constant (Ki) in test [1] (rMOR Ki) was over 10000 nM; in test [2] (rDOR Ki), 12 nM. It took 267 nM to reach a half-maximal effect in test [3] (EC50).

`CCN(CC)C(=O)c1ccc2c(c1)OCc1ccccc1C2=C1CCNCC1` [Compound 2]: the Ki in test [1] (rMOR Ki) was determined as 2630 nM; in test [2] (rDOR Ki), 0.91 nM. Besides, the EC50 – broadly, the concentration that produces a half-maximal response – in test [3] is 58.6 nM.

For `CCNC(=O)c1ccc2c(c1)Sc1ccccc1C2=C1CC2CCC(C1)N2` [Compound 80], the Ki was 473 nM in test [1] (rMOR Ki) and 260 nM in test [2] (rDOR Ki).

On to `NC(=O)c1ccc2c(c1)Oc1ccccc1C2=C1CC2CCC(C1)N2` [Compound 65], for which the Ki amounted to 858 nM in test [1] (rMOR Ki) and 197 nM in test [2] (rDOR Ki).

Take `CC(C)CN(C)C(=O)c1ccc2c(c1)Oc1ccccc1C2=C1CC2CCC(C1)N2` [Compound 59]: the inhibition constant (Ki) worked out at 3340 nM in test [1] (rMOR Ki) and 10.6 nM in test [2] (rDOR Ki).

In the case of `CCN(CC)C(=O)c1ccc2c(c1)Oc1ccc(NC(C)=O)cc1C2=C1CCNCC1` [Compound 34, 7-Acetylamino-9-piperidin-4-ylidene-9H-xanthene-3-carboxylic acid diethylamide], the Ki in test [1] (read-out: rMOR Ki) and in test [2] (read-out: rDOR Ki) was over 10000 nM each time.

In the case of `C=C(C)CN1CCC(=C2c3ccccc3COc3cc(C(=O)NCC)ccc32)CC1` [Compound 14], the Ki in test [1] (read-out: rMOR Ki) worked out at 4820 nM; in test [2] (read-out: rDOR Ki), 432 nM.

Take `CCNC(=O)c1ccc2c(c1)OCc1ccccc1C2=C1CCNCC1` [Compound 11, 11-Piperidin-4-ylidene-6,11-dihydro-dibenzo[b,e]oxepine-3-carboxylic acid ethylamide]: the Ki in test [1] (read-out: rMOR Ki) came to 5660 nM; in test [2] (read-out: rDOR Ki), 317 nM.

In the case of `CCN(CC)C(=O)c1ccc2c(c1)Oc1ccc(C)cc1C2=C1CC2CCC(C1)N2` [Compound 67], the Ki in test [1] (rMOR Ki) is 10900 nM; in test [2] (rDOR Ki) it was 54.4 nM.

With `CCNC(=O)c1ccc2c(c1)OCc1ccccc1C2=C1CCN(Cc2cccs2)CC1` [Compound 13], the Ki in test [1] (read-out: rMOR Ki) is 1900 nM; in test [2] (read-out: rDOR Ki), 143 nM.

Turning to `CCN(CC)C(=O)c1ccc2c(c1)Oc1ccc(-c3ccoc3)cc1C2=C1CC2CCC(C1)N2` [Compound 86], the inhibition constant Ki in test [1] (rMOR Ki) was 12500 nM; in test [2] (rDOR Ki), 1760 nM.

Consider `CCNC(=O)c1ccc2c(c1)Oc1ccccc1C2=C1CCNCC1` [Compound 32, 9-Piperidin-4-ylidene-9H-xanthene-3-carboxylic acid ethylamide], for which the Ki in test [1] (read-out: rMOR Ki) came to 1490 nM; in test [2] (rDOR Ki), 73 nM.

Regarding `CCNC(=O)c1ccc2c(c1)OCc1ccccc1C2=C1CCN(CCc2ccccc2)CC1` [Compound 20], the Ki in test [1] (read-out: rMOR Ki) stood at 248 nM; in test [2] (read-out: rDOR Ki) it was 23300 nM.

`CCNC(=O)c1ccc2c(c1)OCc1ccccc1C2=C1CCN(C)CC1` [Compound 9, 11-(1-Methyl-piperidin-4-ylidene)-6,11-dihydro-dibenzo[b,e]oxepine-3-carboxylic acid ethylamide]: the inhibition constant Ki in test [1] (read-out: rMOR Ki) and in test [2] (read-out: rDOR Ki) was over 100000 nM in each case.

For `CCN(CC)C(=O)c1ccc2c(c1)Oc1c(cccc1-c1cnc3ccccc3c1)C2=C1CC2CCC(C1)N2` [Compound 98], the Ki stood at 7360 nM in test [1] (read-out: rMOR Ki) and 24.5 nM in test [2] (rDOR Ki).

For the compound `CCNC(=O)c1ccc2c(c1)Oc1ccccc1C2=C1CC2CCC(C1)N2CCc1ccccc1` [Compound 27], the Ki came to 189 nM in test [1] (read-out: rMOR Ki) and 209 nM in test [2] (read-out: rDOR Ki).

As to `CCNC(=O)c1ccc2c(c1)OCc1ccccc1C2=C1CCN(C(=O)OCC(Cl)(Cl)Cl)CC1` [Compound 10, 4-(3-Ethylcarbamoyl-6H-dibenzo[b,e]oxepin-11-ylidene) -piperidine-1-carboxylic acid 2,2,2-trichloro-ethyl ester], the Ki in test [1] (read-out: rMOR Ki) was 92500 nM; in test [2] (read-out: rDOR Ki), over 100000 nM.

Turning to `CCN(CC)C(=O)c1ccc2c(c1)Oc1ccc(-c3ccc[nH]3)cc1C2=C1CC2CCC(C1)N2` [Compound 93], the inhibition constant Ki in test [1] (rMOR Ki) and in test [2] (rDOR Ki) was over 10000 nM throughout.

`CC(C)NC(=O)c1ccc2c(c1)Oc1ccccc1C2=C1CC2CCC(C1)N2` [Compound 58]: the inhibition constant (Ki) stood at 2980 nM in test [1] (rMOR Ki) and 1160 nM in test [2] (rDOR Ki).

On to `CCN(CC)C(=O)c1ccc2c(c1)Oc1c(cccc1-c1ccccc1)C2=C1CC2CCC(C1)N2` [Compound 95, 9-(8-Aza-bicyclo[3.2.1]oct-3-ylidene)-5-phenyl-9H-xanthene-3-carboxylic acid diethylamide], for which the Ki came out at 6520 nM in test [1] (rMOR Ki) and 25.4 nM in test [2] (rDOR Ki).

In the case of `CCCN(CCC)C(=O)c1ccc2c(c1)Oc1ccccc1C2=C1CC2CCC(C1)N2` [Compound 60], the Ki worked out at 836 nM in test [1] (rMOR Ki) and 4.62 nM in test [2] (rDOR Ki).

Regarding `CCCNC(=O)c1ccc2c(c1)Oc1ccccc1C2=C1CC2CCC(C1)N2` [Compound 63], the Ki in test [1] (rMOR Ki) is 1730 nM; in test [2] (rDOR Ki), 108 nM.

Take `CCNC(=O)c1ccc2c(c1)OCc1ccccc1C2=C1CCN(Cc2ccc(O)c(OC)c2)CC1` [Compound 18]: the Ki in test [1] (read-out: rMOR Ki) was determined as 2420 nM; in test [2] (read-out: rDOR Ki) it was 2000 nM.

In the case of `CCN(CC)C(=O)c1ccc2c(c1)Oc1ccc(-c3ccncc3)cc1C2=C1CC2CCC(C1)N2` [Compound 85], the figures for the inhibitory constant (Ki) in test [1] (rMOR Ki) and in test [2] (rDOR Ki) were 10700 nM and 3000 nM, respectively.

`C=CCN1CCC(=C2c3ccccc3COc3cc(C(=O)NCC)ccc32)CC1` [Compound 19, 11-(1-Allyl-piperidin-4-ylidene)-6,11-dihydro-dibenzo[b,e]oxepine-3-carboxylic acid ethylamide]: the inhibition constant Ki in test [1] (read-out: rMOR Ki) was found to be 2870 nM; in test [2] (read-out: rDOR Ki), 368 nM.

In the case of `CCN(CC)C(=O)c1ccc2c(c1)Oc1ccc(-c3ccsc3)cc1C2=C1CC2CCC(C1)N2` [Compound 90], the inhibition constant (Ki) in test [1] (rMOR Ki) turned out to be 12400 nM; in test [2] (rDOR Ki), 836 nM.

In test [1] (rMOR Ki), `CCN(CC)C(=O)c1ccc2c(c1)Oc1ccccc1C2C1CCN(C)CC1` (stereo not drawn) [Compound 43, 9-(1-Methylpiperidin-4-yl)-9H-xanthene-3-carboxylic acid diethylamide] showed a Ki of over 10000 nM.

Regarding `CCN(CC)C(=O)c1ccc2c(c1)Oc1cc(OC)ccc1C2=C1CC2CCC(C1)N2` [Compound 70, 9-(8-Aza-bicyclo[3.2.1]oct-3-ylidene)-6-methoxy-9H-xanthene-3-carboxylic acid diethylamide], the Ki in test [1] (rMOR Ki) was 5740 nM; in test [2] (rDOR Ki), 2.31 nM.

Consider `CN(C)C(=O)c1ccc2c(c1)Oc1ccccc1C2=C1CC2CCC(C1)N2` [Compound 57], for which the Ki in test [1] (rMOR Ki) was found to be 5260 nM; in test [2] (rDOR Ki), 397 nM.

`CCN(CC)C(=O)c1ccc2c(c1)Oc1ccc(NC(C)=O)cc1C2=C1CCN(C)CC1` [Compound 41, 7-Acetylamino-9-(1-methyl-piperidin-4-ylidene)-9H-xanthene-3-carboxylic acid diethylamide]: the values for the inhibitory constant (Ki) in test [1] (read-out: rMOR Ki) and in test [2] (read-out: rDOR Ki) were over 10000 nM and 5200 nM, respectively.

For `CCN(CC)C(=O)c1ccc2c(c1)Oc1c(F)cccc1C2=C1CC2CCC(C1)N2` [Compound 102], the Ki in test [1] (rMOR Ki) turned out to be 2860 nM; in test [2] (rDOR Ki), 68 nM.

Regarding `CNC(=O)c1ccc2c(c1)Oc1ccccc1C2=C1CC2CCC(C1)N2` [Compound 64], the Ki in test [1] (rMOR Ki) was 711 nM; in test [2] (rDOR Ki), 118 nM.

Take `C#CCN1CCC(=C2c3ccccc3Oc3cc(C(=O)N(CC)CC)ccc32)CC1` [Compound 33, 9-(1-Prop-2-ynyl-piperidin-4-ylidene)-9H-xanthene-3-carboxylic acid diethylamide]: the results for the Ki in test [1] (rMOR Ki) and in test [2] (rDOR Ki) were 5420 nM and 16.5 nM, respectively.

With `CCN(CC)C(=O)c1ccc2c(c1)Sc1ccccc1C2=C1CC2CCC(C1)N2Cc1c[nH]cn1` [Compound 74], the Ki in test [1] (rMOR Ki) came to 848 nM; in test [2] (rDOR Ki) it was 3.79 nM.
